Reference: PubChem BioAssay (NCI)
Where “and” joins values, the source holds several entries; their conditions need not be identical. Equal entries are not always repeated.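 Interpolation was linear, between the two tested concentrations surrounding the appropriate level; five concentrations were tested over 48 hours in 96-well plates. Here, GI50 denotes the concentration required for 50% inhibition of growth. At the TGI there is no net growth.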

Tests used:
Assay in all cases: inhibition of tumour cell growth, NCI panel, 48 h
[1] = test system: T-47D breast
[2] = test system: NCI-H23 lung
[3] = test system: HS 578T breast
[4] = test system: CCRF-CEM leukemia
[5] = test system: HOP-92 NSCLC
[6] = test system: SK-MEL-2 melanoma
[7] = test system: OVCAR-3 ovarian
[8] = test system: RPMI-8226 leukemia
[9] = test system: SF-268 CNS
[10] = test system: OVCAR-4 ovarian

| Compound | GI50 [1] | TGI [1] | GI50 [2] | TGI [2] | GI50 [3] | TGI [3] | GI50 [4] | TGI [4] | GI50 [5] | TGI [5] | GI50 [6] | TGI [6] | GI50 [7] | TGI [7] | GI50 [8] | TGI [8] | GI50 [9] | TGI [9] | GI50 [10] | TGI [10] |
| --- | --- | --- | --- | --- | --- | --- | --- | --- | --- | --- | --- | --- | --- | --- | --- | --- | --- | --- | --- | --- |
| CCOc1ccc2nc(SCc3nc4n(n3)S(=O)(=O)c3ccccc3N4C)sc2c1 | 81.6 µM | > 100 µM | 57.7 µM | > 100 µM | 45 µM | > 100 µM | 64.2 µM | > 100 µM | 20.7 µM | 58.5 µM | > 100 µM | > 100 µM | > 100 µM | > 100 µM | 31.5 µM | > 100 µM | 57.6 µM | > 100 µM | > 100 µM | > 100 µM |
| CC(C(=O)c1ccccc1)C(c1ccccc1)N1CCOCC1 (stereo unspecified) | – | > 100 µM | – | > 100 µM | – | > 100 µM | – | > 100 µM | – | > 100 µM | – | > 100 µM | – | > 100 µM | – | > 100 µM | – | > 100 µM | – | > 100 µM |
| O=C1c2ccccc2-c2c1c1c(=O)[nH]c3ccccc3c1n2Cc1ccccc1 | 34.3 µM | > 100 µM | 20.5 µM | 46.8 µM | 16.5 µM | 35.7 µM | > 100 µM | > 100 µM | 15.8 µM | 51.5 µM | > 100 µM | > 100 µM | 35 µM | > 100 µM | > 100 µM | > 100 µM | 17.7 µM | 48.7 µM | 45.4 µM | > 100 µM |
| CCCNNC(=O)/C=C/c1ccc(CNCCc2c(C)[nH]c3ccccc23)cc1 | 0.00852 µM | 0.0624 µM | 0.0545 µM | 3.5 µM | 0.0437 µM | 0.621 µM | 0.0138 µM | 6.43 µM | 0.00693 µM | 0.0744 µM | 0.0342 µM | 3.68 µM | 0.0433 µM | 0.161 µM | 0.0101 µM | 0.337 µM | 0.0744 µM | 0.951 µM | 0.0525 µM | 6.45 µM |
| C=C1C(=O)O[C@H]2[C@H]1CC/C(COC(=O)CSCCSCC(=O)OC/C1=C/CC[C@@]3(C)O[C@H]3[C@H]3OC(=O)C(=C)[C@@H]3CC1)=C\CC[C@@]1(C)O[C@@H]21 | 1.63 µM | 3.5 µM | 2.25 µM | 5.38 µM | 4.65 µM | 38.9 µM | 0.468 µM | 3.24 µM | 1.86 µM | 3.82 µM | 2.76 µM | 6.64 µM | 1.15 µM | 2.44 µM | 1.32 µM | 4.48 µM | 1.71 µM | 4.08 µM | 2.38 µM | 6.05 µM |
| COc1cc(/C=C2\C(=O)Nc3cc(C)c(O)cc32)cc(OC)c1OC | 3.93 µM | 37.9 µM | 3.61 µM | 23.7 µM | 2.18 µM | 9.93 µM | 2.89 µM | 18.3 µM | 5.61 µM | > 100 µM | 2.97 µM | 14.5 µM | 3.62 µM | 12.8 µM | 1.47 µM | 4.41 µM | 5.34 µM | 36 µM | 8.23 µM | > 67.7 µM |
| CNC(=O)c1ccc(N2CCN(Cc3ccc4nc(C)c(=O)[nH]c4c3F)CC2)c(F)n1 | 53.5 µM | > 100 µM | 70.6 µM | > 100 µM | 25.3 µM | > 100 µM | > 100 µM | > 100 µM | 21.3 µM | > 100 µM | 76.2 µM | > 100 µM | > 100 µM | > 100 µM | > 100 µM | > 100 µM | 43.3 µM | > 100 µM | > 100 µM | > 100 µM |
| CC(C)(C)C(=O)c1c(C(F)(F)F)n([O-])c2ccccc2[n+]1=O | 0.597 µM | 1.78 µM | 1.17 µM | 2.39 µM | 0.185 µM | 0.728 µM | 0.577 µM | 2.34 µM | 0.573 µM | 1.93 µM | – | 3.23 µM | 0.174 µM | 0.698 µM | 0.0234 µM | 0.246 µM | 0.549 µM | 1.75 µM | 0.6 µM | 2.43 µM |
| O=c1c(Oc2ccc(F)cc2F)cc2cnc(NC3CCOCC3)nc2n1CCCO | > 25 µM | > 25 µM | > 25 µM | > 25 µM | > 25 µM | > 25 µM | > 25 µM | > 25 µM | > 25 µM | > 25 µM | > 25 µM | > 25 µM | > 25 µM | > 25 µM | > 25 µM | > 25 µM | > 25 µM | > 25 µM | > 14.6 µM | > 25 µM |
| COC(=O)c1c2c(c[n+]([O-])c1C)C(=O)C=CC2=O | 2.33 µM | 6.85 µM | 1.88 µM | 4.26 µM | 2.17 µM | 6.04 µM | 2.5 µM | 6.57 µM | 2.84 µM | 9.06 µM | 2.08 µM | 4.5 µM | 0.317 µM | 1.17 µM | 3.9 µM | 26.6 µM | 2.83 µM | 10.7 µM | 1.44 µM | 2.83 µM |
| Cc1cc(=O)oc2cc(OC(=O)N(C)C)c(Cl)cc12 | – | > 100 µM | – | > 100 µM | – | > 100 µM | – | > 100 µM | – | > 100 µM | – | > 100 µM | – | > 100 µM | – | > 100 µM | – | > 100 µM | – | > 100 µM |
| FC(F)c1nc2ccccc2n1-c1nc(N2CCOCC2)nc(N2CCOCC2)n1 | 0.0502 µM and 0.11 µM | 0.388 µM and 0.565 µM | 0.492 µM and 0.617 µM | – | 0.143 µM and 0.0684 µM | 0.995 µM and 0.773 µM | 0.495 µM and 0.556 µM | > 100 µM | 0.0486 µM and 0.0548 µM | 0.382 µM and 0.551 µM | 0.519 µM and 1.08 µM | 2.79 µM and 14.3 µM | 0.204 µM and 0.281 µM | 3.44 µM and 5.67 µM | 0.482 µM and 0.345 µM | > 7.2 µM and 4.26 µM | 0.361 µM and 0.6 µM | > 100 µM | 0.797 µM and 0.475 µM | 6.87 µM and 5.39 µM |
| Cc1nc(SCC(=O)Nc2nc(-c3ccc(Cl)cc3)cs2)n(Nc2ccccc2)c1C | 1.4 µM | 5.24 µM | 1.85 µM | 6.02 µM | 3.42 µM | 21.6 µM | 5.49 µM | > 100 µM | 1.61 µM | 6.89 µM | 10.1 µM | 27.6 µM | 3 µM | 12.1 µM | 3.55 µM | > 100 µM | 4.8 µM | 20.1 µM | 4.6 µM | 22.1 µM |
| C#CCOc1cccc(-c2ncnc3cc(NC(=O)CCl)ccc23)c1 | 1.69 µM | 5.02 µM | 0.886 µM | 3.14 µM | 1.92 µM | 14.5 µM | 0.0249 µM | – | 1.42 µM | 3.32 µM | 1.26 µM | 3.78 µM | 0.617 µM | 2.07 µM | 1.67 µM | 6.13 µM | 0.669 µM | 2.94 µM | 1.2 µM | 2.59 µM |
| Cc1ccc(C)c2c1C(O)(C#Cc1ccccc1)c1ccccc1C2(O)C#Cc1ccccc1 (stereo unspecified) | 2 µM | > 27.5 µM | 3.23 µM | > 29.5 µM | 3.4 µM | > 100 µM | 2.36 µM | > 25.4 µM | 2.29 µM | > 27.3 µM | 2.98 µM | 11.5 µM | 3.12 µM | > 34.7 µM | 1.83 µM | – | 3.65 µM | > 100 µM | 3.85 µM | > 100 µM |
| Cc1cnc(NC(=O)Nc2cc(Br)c(C)cc2OC[C@@H]2CNCCO2)cn1 | 2.88 µM and 7.86 µM | > 10 µM and 22.3 µM | 0.466 µM and 0.548 µM | > 10 µM and 9.42 µM | 0.572 µM and 0.771 µM | > 10 µM and 8.82 µM | 0.321 µM and 0.259 µM | 9.48 µM and 1.23 µM | 0.546 µM and 0.389 µM | > 10 µM and 5.72 µM | 0.55 µM and 0.653 µM | > 10 µM and 13 µM | 1.37 µM and 1.13 µM | > 10 µM and 10.2 µM | 3.05 µM and 1.52 µM | > 10 µM and 8.52 µM | 3.66 µM and 2.33 µM | > 10 µM and 13.6 µM | 5.85 µM and 1.05 µM | > 10 µM and 15.5 µM |
| CC(C)CCC(=O)c1ccoc1 | – | > 100 µM | – | > 100 µM | – | > 100 µM | – | > 100 µM | – | > 100 µM | – | > 100 µM | – | > 100 µM | – | > 100 µM | – | > 100 µM | – | > 100 µM |
| CC(=O)O[C@H]1CC[C@@]2(C)C(=CC[C@H]3[C@@H]4CC[C@H](c5cc(C(F)(F)F)n(C(C)=O)n5)[C@@]4(C)CC[C@@H]32)C1 | – | 25 µM | – | 28.6 µM | – | > 60.8 µM | – | 9.04 µM | – | 6.43 µM | – | 20.8 µM | – | 18.7 µM | – | 17.9 µM | – | > 48.1 µM | – | 15.6 µM |
| Cc1ccc(-c2csc(/N=C3\C(=O)Nc4ccccc43)n2)cc1 | 1.36 µM | 4.46 µM | 1.46 µM | 2.98 µM | 1.97 µM | 6.66 µM | 1.78 µM | 5.4 µM | 1.24 µM | 3.29 µM | 1.63 µM | 3.69 µM | 1.64 µM | 4.89 µM | 1.05 µM | 4.29 µM | 1.52 µM | 3.5 µM | 1.75 µM | 6.48 µM |
| O=S(=O)(Nc1ccccc1Cl)c1ccc(-c2cnc(C3CC3)o2)cc1 | 0.464 µM | > 54.7 µM | 1.78 µM | > 100 µM | 0.346 µM | > 94.9 µM | 0.388 µM | > 100 µM | 0.324 µM | 7.28 µM | 0.64 µM | > 100 µM | 0.303 µM | 15.7 µM | 0.541 µM | 22.7 µM | 12.4 µM | > 100 µM | 4.21 µM | > 100 µM |
